pIC50: −log10 of the molar value. Values joined by “and” are separate entries in the source; they are usually repeats but may differ in a detail not shown here. Identical values can stand only once.
Assays:
[1] = test system: LOC100128443; settings: human
[2] = target: T1, ITK (Homo sapiens, UniProt Q08881); assay: biochemical
T1 sequence (Q08881 1-620): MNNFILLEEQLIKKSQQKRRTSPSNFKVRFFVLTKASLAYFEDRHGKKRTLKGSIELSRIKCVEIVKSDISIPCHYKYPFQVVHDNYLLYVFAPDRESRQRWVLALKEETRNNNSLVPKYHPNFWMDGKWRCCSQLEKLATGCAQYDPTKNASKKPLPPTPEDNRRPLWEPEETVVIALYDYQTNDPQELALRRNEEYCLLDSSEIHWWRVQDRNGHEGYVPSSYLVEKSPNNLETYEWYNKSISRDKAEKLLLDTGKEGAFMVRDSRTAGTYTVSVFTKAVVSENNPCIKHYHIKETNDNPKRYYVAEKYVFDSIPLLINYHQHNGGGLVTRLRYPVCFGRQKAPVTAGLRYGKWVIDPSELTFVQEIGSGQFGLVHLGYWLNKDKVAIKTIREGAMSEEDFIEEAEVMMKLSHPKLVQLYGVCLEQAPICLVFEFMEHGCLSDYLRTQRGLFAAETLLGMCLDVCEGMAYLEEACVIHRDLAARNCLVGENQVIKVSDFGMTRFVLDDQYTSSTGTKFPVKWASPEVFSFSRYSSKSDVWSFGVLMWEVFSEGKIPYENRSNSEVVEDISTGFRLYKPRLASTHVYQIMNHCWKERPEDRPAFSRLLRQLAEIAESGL

[3] = target: PRKCB (Homo sapiens, UniProt P05771); assay: biochemical
[4] = target: GSK3B (Homo sapiens, UniProt P49841); assay: biochemical
[5] = target: TYK2 (Homo sapiens, UniProt P29597); assay: biochemical
[6] = target: T2, STRADA (Homo sapiens, UniProt Q7RTN6); assay: biochemical
T2 sequence (Q7RTN6 1-431): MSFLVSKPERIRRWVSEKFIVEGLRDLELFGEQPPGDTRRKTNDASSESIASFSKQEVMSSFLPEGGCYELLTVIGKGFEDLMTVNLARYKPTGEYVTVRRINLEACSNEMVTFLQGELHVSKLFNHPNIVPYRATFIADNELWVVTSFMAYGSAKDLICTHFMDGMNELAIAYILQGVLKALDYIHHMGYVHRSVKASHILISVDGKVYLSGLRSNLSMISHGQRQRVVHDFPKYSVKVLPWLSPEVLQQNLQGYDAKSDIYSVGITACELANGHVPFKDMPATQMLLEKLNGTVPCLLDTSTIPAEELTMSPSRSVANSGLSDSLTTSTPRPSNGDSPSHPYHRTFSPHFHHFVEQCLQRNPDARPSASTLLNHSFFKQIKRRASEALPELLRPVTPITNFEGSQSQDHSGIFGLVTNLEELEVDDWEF

[7] = target: T3, NEK2 (Homo sapiens, UniProt P51955); assay: biochemical
T3 sequence (P51955 1-445): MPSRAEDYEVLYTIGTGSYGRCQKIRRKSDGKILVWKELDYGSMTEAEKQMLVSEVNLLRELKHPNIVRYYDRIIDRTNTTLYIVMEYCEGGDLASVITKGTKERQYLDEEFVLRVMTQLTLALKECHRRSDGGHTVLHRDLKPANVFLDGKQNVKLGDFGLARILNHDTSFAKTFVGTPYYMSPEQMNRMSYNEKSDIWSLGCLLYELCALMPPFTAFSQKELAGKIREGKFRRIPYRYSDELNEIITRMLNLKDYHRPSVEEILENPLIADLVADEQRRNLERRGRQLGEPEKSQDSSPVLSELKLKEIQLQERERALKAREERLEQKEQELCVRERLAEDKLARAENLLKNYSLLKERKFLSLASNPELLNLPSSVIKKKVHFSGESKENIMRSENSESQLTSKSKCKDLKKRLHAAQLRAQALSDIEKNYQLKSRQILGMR

[8] = target: MARK3 (Homo sapiens, UniProt P27448); assay: biochemical
[9] = target: FYN (Homo sapiens, UniProt P06241); assay: biochemical
[10] = target: T4, TP53RK (Homo sapiens, UniProt Q96S44); assay: biochemical
T4 sequence (Q96S44 1-253): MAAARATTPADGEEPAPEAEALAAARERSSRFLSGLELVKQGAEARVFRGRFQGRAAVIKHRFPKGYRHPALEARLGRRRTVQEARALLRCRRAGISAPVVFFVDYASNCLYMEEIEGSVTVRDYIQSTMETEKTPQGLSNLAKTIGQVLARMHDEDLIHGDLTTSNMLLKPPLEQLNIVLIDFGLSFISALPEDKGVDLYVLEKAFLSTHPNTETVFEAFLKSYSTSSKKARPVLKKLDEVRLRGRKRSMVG

[11] = target: STK16 (Homo sapiens, UniProt O75716); assay: biochemical
[12] = target: T5, MAP3K7 (Homo sapiens, UniProt O43318); assay: biochemical
T5 sequence (O43318 1-606): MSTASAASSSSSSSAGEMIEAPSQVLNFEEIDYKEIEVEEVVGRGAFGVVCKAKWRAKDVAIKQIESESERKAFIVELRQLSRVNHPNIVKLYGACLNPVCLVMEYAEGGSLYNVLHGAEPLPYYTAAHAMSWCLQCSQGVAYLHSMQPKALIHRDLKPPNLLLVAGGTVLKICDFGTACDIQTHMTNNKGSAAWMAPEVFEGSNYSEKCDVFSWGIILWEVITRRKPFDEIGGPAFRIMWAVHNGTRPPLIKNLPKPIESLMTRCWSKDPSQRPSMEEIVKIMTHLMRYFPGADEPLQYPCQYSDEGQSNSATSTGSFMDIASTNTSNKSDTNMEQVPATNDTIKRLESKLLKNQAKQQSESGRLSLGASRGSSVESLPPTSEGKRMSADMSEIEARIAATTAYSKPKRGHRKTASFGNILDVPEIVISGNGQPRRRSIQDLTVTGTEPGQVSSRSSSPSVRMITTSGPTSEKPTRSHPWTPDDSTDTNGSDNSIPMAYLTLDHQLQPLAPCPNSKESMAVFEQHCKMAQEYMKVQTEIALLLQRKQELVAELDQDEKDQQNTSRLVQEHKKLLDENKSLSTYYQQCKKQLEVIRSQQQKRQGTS

[13] = target: JAK1 (Homo sapiens, UniProt P23458); assay: biochemical
JAK1, sequence (P23458 whole entry): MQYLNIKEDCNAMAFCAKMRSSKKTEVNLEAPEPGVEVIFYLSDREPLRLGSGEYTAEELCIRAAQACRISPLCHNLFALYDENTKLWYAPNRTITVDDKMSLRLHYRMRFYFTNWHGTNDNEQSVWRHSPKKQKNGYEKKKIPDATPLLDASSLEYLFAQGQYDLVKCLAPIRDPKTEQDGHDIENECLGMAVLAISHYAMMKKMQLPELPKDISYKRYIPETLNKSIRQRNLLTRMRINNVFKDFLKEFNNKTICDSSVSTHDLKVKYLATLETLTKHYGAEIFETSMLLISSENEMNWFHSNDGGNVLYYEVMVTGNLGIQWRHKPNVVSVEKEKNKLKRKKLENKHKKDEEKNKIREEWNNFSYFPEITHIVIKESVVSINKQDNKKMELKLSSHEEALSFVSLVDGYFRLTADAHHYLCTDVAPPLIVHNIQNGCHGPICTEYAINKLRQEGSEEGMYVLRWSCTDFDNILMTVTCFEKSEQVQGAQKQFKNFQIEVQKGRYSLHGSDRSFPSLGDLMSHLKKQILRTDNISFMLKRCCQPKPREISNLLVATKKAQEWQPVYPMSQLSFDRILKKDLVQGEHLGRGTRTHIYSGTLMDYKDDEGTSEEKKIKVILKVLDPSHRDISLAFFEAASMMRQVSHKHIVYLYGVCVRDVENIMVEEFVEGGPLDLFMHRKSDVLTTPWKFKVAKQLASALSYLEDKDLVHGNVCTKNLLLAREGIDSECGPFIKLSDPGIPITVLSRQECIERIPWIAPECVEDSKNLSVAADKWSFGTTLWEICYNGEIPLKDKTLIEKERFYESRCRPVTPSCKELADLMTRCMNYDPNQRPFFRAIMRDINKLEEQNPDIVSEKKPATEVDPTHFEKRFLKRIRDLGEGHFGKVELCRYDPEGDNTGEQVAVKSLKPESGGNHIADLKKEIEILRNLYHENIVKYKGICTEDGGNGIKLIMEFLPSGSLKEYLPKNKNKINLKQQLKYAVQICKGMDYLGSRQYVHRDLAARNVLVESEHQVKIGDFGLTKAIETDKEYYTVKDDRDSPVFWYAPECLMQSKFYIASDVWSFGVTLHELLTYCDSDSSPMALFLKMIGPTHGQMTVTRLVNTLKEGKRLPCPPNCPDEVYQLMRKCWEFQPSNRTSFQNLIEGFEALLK

STK16, sequence (O75716 whole entry): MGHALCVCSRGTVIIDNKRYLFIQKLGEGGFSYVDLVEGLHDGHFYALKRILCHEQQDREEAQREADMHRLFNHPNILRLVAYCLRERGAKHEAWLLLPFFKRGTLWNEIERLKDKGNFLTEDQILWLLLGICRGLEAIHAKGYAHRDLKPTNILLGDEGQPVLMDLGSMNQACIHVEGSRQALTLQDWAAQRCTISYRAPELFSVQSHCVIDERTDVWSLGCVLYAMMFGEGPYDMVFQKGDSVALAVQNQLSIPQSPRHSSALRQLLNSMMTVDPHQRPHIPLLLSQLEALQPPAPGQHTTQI
TYK2, sequence (P29597 whole entry): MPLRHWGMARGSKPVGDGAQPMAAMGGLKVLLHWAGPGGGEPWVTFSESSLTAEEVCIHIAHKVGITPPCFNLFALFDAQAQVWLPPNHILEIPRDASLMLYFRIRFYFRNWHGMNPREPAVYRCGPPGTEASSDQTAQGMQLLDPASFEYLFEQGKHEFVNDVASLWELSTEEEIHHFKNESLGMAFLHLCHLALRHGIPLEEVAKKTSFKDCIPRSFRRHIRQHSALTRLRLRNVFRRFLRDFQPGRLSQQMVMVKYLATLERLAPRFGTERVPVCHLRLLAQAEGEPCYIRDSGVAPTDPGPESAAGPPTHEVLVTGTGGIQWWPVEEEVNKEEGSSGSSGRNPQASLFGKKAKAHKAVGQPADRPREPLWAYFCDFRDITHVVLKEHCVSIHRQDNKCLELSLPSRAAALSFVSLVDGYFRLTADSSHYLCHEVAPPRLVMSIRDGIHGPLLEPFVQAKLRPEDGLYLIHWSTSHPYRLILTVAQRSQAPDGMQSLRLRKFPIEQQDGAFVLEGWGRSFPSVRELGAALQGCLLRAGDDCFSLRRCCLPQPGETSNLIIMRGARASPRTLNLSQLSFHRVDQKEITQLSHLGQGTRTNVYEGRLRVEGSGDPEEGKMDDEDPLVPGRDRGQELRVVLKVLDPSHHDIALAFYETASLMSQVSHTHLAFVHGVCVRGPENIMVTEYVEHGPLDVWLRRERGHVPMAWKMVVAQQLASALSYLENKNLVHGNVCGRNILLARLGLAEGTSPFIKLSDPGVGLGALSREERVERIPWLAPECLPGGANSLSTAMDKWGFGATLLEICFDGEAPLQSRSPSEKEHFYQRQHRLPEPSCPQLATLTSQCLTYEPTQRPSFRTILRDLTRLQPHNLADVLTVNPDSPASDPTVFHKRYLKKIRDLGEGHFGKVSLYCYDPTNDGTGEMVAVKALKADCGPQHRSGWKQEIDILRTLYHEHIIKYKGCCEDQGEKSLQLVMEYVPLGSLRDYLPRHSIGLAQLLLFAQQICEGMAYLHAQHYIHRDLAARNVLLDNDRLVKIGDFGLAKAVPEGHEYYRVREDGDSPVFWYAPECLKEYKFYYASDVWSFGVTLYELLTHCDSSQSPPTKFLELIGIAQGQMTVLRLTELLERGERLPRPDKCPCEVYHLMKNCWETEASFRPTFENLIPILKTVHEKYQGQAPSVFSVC
PRKCB, sequence (P05771 whole entry): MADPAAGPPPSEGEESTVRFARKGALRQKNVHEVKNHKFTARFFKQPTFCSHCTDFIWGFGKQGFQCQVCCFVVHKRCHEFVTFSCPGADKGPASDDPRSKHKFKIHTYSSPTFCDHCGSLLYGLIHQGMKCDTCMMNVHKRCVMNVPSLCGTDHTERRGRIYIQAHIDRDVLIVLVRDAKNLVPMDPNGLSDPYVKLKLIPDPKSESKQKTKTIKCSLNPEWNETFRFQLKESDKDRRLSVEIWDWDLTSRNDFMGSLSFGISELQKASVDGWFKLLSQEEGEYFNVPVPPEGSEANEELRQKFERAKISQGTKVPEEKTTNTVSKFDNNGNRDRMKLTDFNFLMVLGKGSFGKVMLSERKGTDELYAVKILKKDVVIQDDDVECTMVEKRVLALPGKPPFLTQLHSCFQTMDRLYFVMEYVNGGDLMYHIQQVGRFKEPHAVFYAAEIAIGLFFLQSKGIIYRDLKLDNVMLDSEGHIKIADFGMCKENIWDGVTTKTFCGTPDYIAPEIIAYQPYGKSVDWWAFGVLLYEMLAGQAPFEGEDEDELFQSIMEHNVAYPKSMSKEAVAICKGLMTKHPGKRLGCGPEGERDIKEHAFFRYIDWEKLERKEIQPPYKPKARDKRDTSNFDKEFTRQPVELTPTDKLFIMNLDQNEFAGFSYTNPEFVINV
MARK3, sequence (P27448 whole entry): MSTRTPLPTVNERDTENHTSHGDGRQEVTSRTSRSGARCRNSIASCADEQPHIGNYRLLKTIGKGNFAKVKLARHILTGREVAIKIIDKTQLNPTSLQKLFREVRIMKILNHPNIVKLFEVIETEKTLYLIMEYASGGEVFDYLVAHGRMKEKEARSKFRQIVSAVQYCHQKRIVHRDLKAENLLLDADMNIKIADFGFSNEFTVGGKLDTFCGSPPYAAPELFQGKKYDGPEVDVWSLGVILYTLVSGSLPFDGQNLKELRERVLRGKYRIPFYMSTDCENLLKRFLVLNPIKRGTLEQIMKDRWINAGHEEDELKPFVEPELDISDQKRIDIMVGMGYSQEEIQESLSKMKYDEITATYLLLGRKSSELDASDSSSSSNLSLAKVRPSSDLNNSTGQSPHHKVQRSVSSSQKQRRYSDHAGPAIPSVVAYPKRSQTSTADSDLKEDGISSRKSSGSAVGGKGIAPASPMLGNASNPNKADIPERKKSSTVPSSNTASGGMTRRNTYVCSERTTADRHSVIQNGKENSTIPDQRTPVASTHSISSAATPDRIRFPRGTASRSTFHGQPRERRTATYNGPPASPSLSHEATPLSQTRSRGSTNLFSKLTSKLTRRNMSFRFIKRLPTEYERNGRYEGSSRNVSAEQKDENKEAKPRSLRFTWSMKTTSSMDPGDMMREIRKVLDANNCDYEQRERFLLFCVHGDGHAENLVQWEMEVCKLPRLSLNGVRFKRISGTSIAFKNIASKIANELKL
FYN, sequence (P06241 whole entry): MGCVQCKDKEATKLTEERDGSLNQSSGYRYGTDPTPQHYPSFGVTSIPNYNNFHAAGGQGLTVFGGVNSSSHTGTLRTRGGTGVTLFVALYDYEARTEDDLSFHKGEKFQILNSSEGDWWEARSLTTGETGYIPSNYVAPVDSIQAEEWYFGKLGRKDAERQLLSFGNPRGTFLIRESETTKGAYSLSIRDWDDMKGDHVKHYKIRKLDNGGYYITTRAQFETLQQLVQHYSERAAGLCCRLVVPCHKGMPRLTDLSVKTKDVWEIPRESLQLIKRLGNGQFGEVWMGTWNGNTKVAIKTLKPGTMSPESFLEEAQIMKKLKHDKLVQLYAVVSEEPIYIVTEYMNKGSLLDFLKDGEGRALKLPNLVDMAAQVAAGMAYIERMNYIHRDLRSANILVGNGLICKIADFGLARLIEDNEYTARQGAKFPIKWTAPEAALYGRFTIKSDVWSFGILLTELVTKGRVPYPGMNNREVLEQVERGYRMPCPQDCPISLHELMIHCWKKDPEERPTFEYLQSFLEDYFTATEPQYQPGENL
GSK3B, sequence (P49841 whole entry): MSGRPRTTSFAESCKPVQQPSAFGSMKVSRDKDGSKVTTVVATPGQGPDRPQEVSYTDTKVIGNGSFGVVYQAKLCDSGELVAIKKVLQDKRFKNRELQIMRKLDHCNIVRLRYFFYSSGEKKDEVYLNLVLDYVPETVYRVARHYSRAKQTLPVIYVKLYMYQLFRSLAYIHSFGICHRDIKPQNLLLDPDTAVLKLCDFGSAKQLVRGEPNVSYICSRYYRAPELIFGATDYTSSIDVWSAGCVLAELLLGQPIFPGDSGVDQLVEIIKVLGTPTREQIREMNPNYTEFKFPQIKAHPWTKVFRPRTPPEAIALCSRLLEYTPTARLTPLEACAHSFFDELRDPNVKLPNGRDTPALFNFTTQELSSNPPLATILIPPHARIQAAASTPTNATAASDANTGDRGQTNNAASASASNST

Structure (SMILES)	pIC50 [1]	pIC50 [2]	pIC50 [3]	pIC50 [4]	pIC50 [5]	pIC50 [6]	pIC50 [7]	pIC50 [8]	pIC50 [9]	pIC50 [10]	pIC50 [11]	pIC50 [12]	pIC50 [13]
CN(C)CC(O)COc1ccc(Nc2ncc([N+](=O)[O-])c(Nc3ccccc3O)n2)cc1.O=C(O)C(F)(F)F (stereo not drawn) [TCMDC-141399]	< 4.70	5.77	< 4.70	5.08 and 4.96	5.72	< 4.70	5.19 and 5.38	5.00 and 5.18	< 4.70	< 4.70	5.96	< 4.70	5.96 and 5.85
Cl.NCC1(c2nc(-c3ccc(Cl)c(O)c3)c(-c3ccncc3)[nH]2)CCCCC1 [TCMDC-141154]	< 4.70	< 4.70	4.92 and 5.23	5.11	< 4.70	< 4.70	< 4.70	< 4.70	6.72 and 6.77	< 4.70	< 4.70	< 4.70	< 4.70
CN1CCN(c2ccc(Nc3ncc(C#N)c(Nc4ccccc4C(N)=O)n3)cc2)CC1.Cl [TCMDC-134116]	6.48	6.85	6.06	5.62 and 5.82	7.00 and 7.04	< 4.70	6.24 and 6.60	6.92 and 6.85	6.52 and 6.62	5.40	6.57 and 6.42	5.70 and 5.96	7.28 and 7.10

Source: paper PMC4774911, “Biochemical Screening of Five Protein Kinases from Plasmodium falciparum against 14,000 Cell-Active Compounds” (PLoS ONE, 2016)
